The record followed here is PubChem BioAssay AID1996.

Each structure is given as a SMILES string. In brackets after ≈: the same amount, converted by molar mass.

For the data set the following is noted: buffer; pH 7.4; 200.0 µM.
For orientation: solubility (kinetic) means the concentration staying in solution when a stock, usually in DMSO, is diluted into the medium. For `Cc1cc(Cl)c2ccc(Cl)cc2n1`, the kinetic solubility was less than 0.5 µg/mL.
The compound `Cc1[nH]c2ccc(Cl)cc2c(=O)c1CN1CCCC1` had a kinetic solubility of 38.7 µg/mL (≈ 140 µM).
Consider `CC1CC1C(=O)OCC(=O)Nc1ccc(Cl)cn1` (stereo not drawn), for which the solubility (kinetic) was 27.6 µg/mL (≈ 103 µM).
To `Cc1cc(C(=O)NC2CCCN(Cc3ccc(Cl)cc3)C2)no1` (stereo not drawn) belongs 39.7 µg/mL (≈ 119 µM); to `Cc1cc(-c2ccccc2)oc(=O)c1NC(=O)c1ccccc1`, less than 0.7 µg/mL; to `CCC(C)NC(=O)CN1c2cccc3cccc(c23)S1(=O)=O` (stereo not drawn), 35.5 µg/mL (≈ 111 µM).
To `Cc1cccc(OCCCCN2CCNCC2)c1` belongs 21.3 µg/mL (≈ 85.8 µM); to `O=C(Nc1cc(S(=O)(=O)N2CCCC2)ccc1Cl)c1cc(F)c(F)c(F)c1F`, 17.7 µg/mL (≈ 40.5 µM); to `O=C(COC(=O)c1ccccc1)Nc1ncc([N+](=O)[O-])s1`, greater than 46.1 µg/mL.
The same measure for `Cc1ccc(OCC(=O)Nc2ccccc2C(=O)NC2CC2)cc1C`: 0.8 µg/mL (≈ 2.36 µM); for `Fc1cc2[nH]cnc2cc1Cl`: greater than 25.6 µg/mL.
Take `Cc1cccnc1NC(=O)CNC(=O)c1ccccc1`: the kinetic solubility was greater than 40.4 µg/mL.
The same measure for `CC1CCN(C(=O)COC(=O)c2ccc([N+](=O)[O-])o2)CC1`: greater than 44.4 µg/mL; for `CC1(C)Cc2cccc(C(=O)Nc3ccc(F)cc3F)c2O1`: 0.7 µg/mL (≈ 2.31 µM); for `C#CCn1c2ccccc2c2nc3ccccc3nc21`: less than 0.2 µg/mL.
The same measure for `CN(C)CCO[C@@H](c1ccc(Cl)cc1)c1ccccn1.O=C(O)/C=C\C(=O)O`: greater than 61 µg/mL; for `CC(OC(=O)c1cccc(Cl)c1)C(=O)NC1CCCCC1C` (stereo not drawn): 8.7 µg/mL (≈ 26.9 µM); for `S=C(NCCCc1ccccc1)NC1CCCCC1`: 22.5 µg/mL (≈ 81.4 µM).
The same measure for `Cc1cccc(NC(=O)c2ccccc2C(=O)Nc2cccc(C)c2)c1`: 3 µg/mL (≈ 8.71 µM).
`CCCNC(=O)CN1C(=O)NC(CCc2ccccc2)C1=O` (stereo not drawn): the kinetic solubility is greater than 45.5 µg/mL.
The same measure for `Fc1cccc(NCCc2c[nH]c3ccccc23)n1`: 35.6 µg/mL (≈ 139 µM); for `O=C(C1CCCO1)N(c1ccc(F)cc1)C1C=CS(=O)(=O)C1` (stereo not drawn): greater than 48.8 µg/mL.
To `O=C(Nc1ccccc1O)c1ccc(NC(=O)C2CC2)cc1` belongs 1.9 µg/mL (≈ 6.41 µM); to `CC(NC(=O)COC(=O)C1CC1C)c1ccccc1` (stereo not drawn), greater than 39.2 µg/mL.
In turn, `CCc1cccc(NC(=O)C2CCN(c3ncnc4sc(C)c(C)c34)CC2)c1` showed a kinetic solubility of 2.7 µg/mL (≈ 6.84 µM).
The same measure for `CCN(CC(=O)Nc1ccccc1Br)C1CCCCC1`: 9.1 µg/mL (≈ 26.8 µM); for `Cn1c(=O)n(Cc2ccccc2Cl)c(=O)c2c1[nH]c(=S)n2C`: greater than 50.5 µg/mL; for `O=C(COC(=O)/C=C/c1cccc(F)c1)Nc1ncccn1`: 27.7 µg/mL (≈ 91.9 µM).
The same measure for `COc1ccc(NC(=O)CCC(=O)NCc2ccco2)c([N+](=O)[O-])c1`: greater than 52.1 µg/mL.
To `COc1ccccc1N1CCN(Cc2ccc(O)c3ncccc23)CC1` belongs 7.5 µg/mL (≈ 21.5 µM); to `COc1cccc(C(=O)CC(=O)C(=O)Nc2ccc(C)cc2Cl)c1`, 8.1 µg/mL (≈ 23.4 µM); to `CCCNC(=S)N1CCC(Cc2ccccc2)CC1`, 28.3 µg/mL (≈ 102 µM).
`COc1ccc(Cc2nnc(NCCO)[nH]c2=O)cc1` registered a kinetic solubility greater than 41.4 µg/mL.
The same measure for `Cc1ccc(C)c(NC(=O)CN(C)C(=O)COc2ccc3ccccc3c2)c1`: 3.1 µg/mL (≈ 8.23 µM); for `CC(OC(=O)c1ccccc1O)C(=O)Nc1cccc(Cl)c1` (stereo not drawn): 2 µg/mL (≈ 6.26 µM).
Compound `COc1ccc(NC(=S)N2CCCC2)cc1OC` showed a solubility (kinetic) greater than 40 µg/mL.
To `CCN(c1ccccc1)S(=O)(=O)c1c(C)noc1C` belongs 31.4 µg/mL (≈ 112 µM).
To `CC(C)C1/C(=N/O)CC(c2ccccc2)NC1c1ccccc1` (stereo not drawn) belongs less than 0.3 µg/mL; to `O=C(Nc1ccc2nc(N3CCOCC3)sc2c1)c1ccccc1`, 7.2 µg/mL (≈ 21.2 µM).
The same measure for `COC(=O)C(C)Oc1ccc(Cl)c(CN2OCC(C)(C)C2=O)c1` (stereo not drawn): greater than 51.3 µg/mL; for `Cc1noc(C)c1CSCC(=O)Nc1ccc(C#N)c(Cl)c1`: greater than 50.4 µg/mL; for `O=C(Cn1cc(C(F)(F)F)ccc1=O)N1CCCc2ccccc21`: greater than 50.4 µg/mL.
Regarding `CCOc1ccc(NC(=O)CN2C(=O)C(C)SC(C)C2=O)cc1` (stereo not drawn), the solubility (kinetic) came to 34.8 µg/mL (≈ 103 µM).
To `COC(=O)c1c(C)[nH]c(C(=O)NCc2ccco2)c1C` belongs 35.3 µg/mL (≈ 128 µM); to `CC(=O)C1=C(O)C(=O)N(c2cccnc2)C1c1cccc([N+](=O)[O-])c1` (stereo not drawn), greater than 50.9 µg/mL; to `CCc1ccc(C(=O)Nc2nc(C)cs2)s1`, 32.9 µg/mL (≈ 130 µM).
The same measure for `CN(C)c1cccc2cccc(N(C)C)c12`: 31.2 µg/mL (≈ 146 µM); for `CC1CCN(C2=NC(=O)/C(=C/c3cccc(O)c3)S2)CC1`: 2.3 µg/mL (≈ 7.61 µM); for `Cc1ccc(CNC(=S)Nc2cc(C)ccc2OC(F)F)cc1`: 4.7 µg/mL (≈ 14 µM).
The same measure for `CCC(C)NC(=O)COCc1cc(-c2ccc3c(c2)OCO3)on1` (stereo not drawn): greater than 49.9 µg/mL; for `O=C1CSC(=S)N1c1ccc(Cl)c(Cl)c1`: less than 0.6 µg/mL; for `COS(=O)(=O)[O-].Cn1c(Cc2ccccc2)[n+](C)c2ccccc21`: 50.7 µg/mL.
As to `COc1ccc(NC(=O)COC(=O)CCC2CCCC2)c(OC)c1`, the kinetic solubility stood at 17.4 µg/mL (≈ 51.9 µM). Compared with the last compound, the solubility kinetic is about 2.9-fold lower.
`CN1C(=O)c2cccc3c(S(=O)(=O)N4CCCC4C(=O)O)ccc1c23` (stereo not drawn) registered a solubility (kinetic) greater than 54.1 µg/mL.
With `CN(C)C(=S)Nc1ccc(N2CCOCC2)cc1`, the solubility (kinetic) was greater than 39.8 µg/mL.
To `O=C(COC(=O)c1ccc(C(F)(F)F)cc1)Nc1cccc(S(=O)(=O)NC2=NCCCCC2)c1` belongs 10.5 µg/mL (≈ 21.1 µM).
To `CC(OC(=O)c1cc[n+]([O-])cc1)C(=O)NCc1ccccc1` (stereo not drawn) belongs greater than 45 µg/mL; to `NC(=O)C1CCN(C(=O)CCc2ccsc2)CC1`, greater than 40 µg/mL.
To `Cc1ccc(N(CC(=O)NC2CC2)S(=O)(=O)c2ccccc2)c(C)c1` belongs greater than 53.8 µg/mL; to `NC(=O)COc1c(-c2ccc(Br)o2)oc2ccccc2c1=O`, 11.1 µg/mL (≈ 30.5 µM).
`Cc1cc(=O)[nH]c(SCC(=O)NCCC2=CCCCC2)n1`: the kinetic solubility is 38.8 µg/mL (≈ 126 µM).
The same measure for `Cc1ncc([N+](=O)[O-])n1CCO`: greater than 25.7 µg/mL.
The same measure for `Cc1ccc(NC(=O)CCC(=O)c2cccs2)c(Br)c1`: 8.6 µg/mL (≈ 24.4 µM); for `C#CCOC(=O)C[N+](C)(C)CC=C.[Cl-]`: greater than 32.7 µg/mL; for `COc1ccc(NC(=S)N2CCCC2)c(OC)c1`: greater than 40 µg/mL.
To `CC(=O)Nc1ccc(NC(=O)COC(=O)COc2ccc3ccccc3c2)cc1` belongs 9.7 µg/mL (≈ 24.7 µM); to `Cc1cccc(C(=O)N/C(=C\c2ccco2)C(=O)N2CCCC2)c1`, greater than 48.7 µg/mL; to `CC(=O)N(C)c1ccc(NC(=O)Cc2cccc3ccccc23)cc1`, 3.9 µg/mL (≈ 11.7 µM).
Consider `CNc1nc(NCc2ccccc2)c2ccccc2n1.Cl`, for which the kinetic solubility stood at 37 µg/mL.
As to `CC(=O)Nc1nonc1-c1nc2ccccc2n1C`, the kinetic solubility is 3.1 µg/mL (≈ 12.1 µM).
`O=C(c1ccccc1)n1c(=O)c(F)cn(COCCBr)c1=O` yielded a solubility (kinetic) greater than 55.7 µg/mL.
Compound `CC1CCCN(C(=O)CCNC(=O)c2ccccc2Cl)C1` (stereo not drawn) registered a kinetic solubility greater than 46.3 µg/mL.
The same measure for `CCC(C)NC(=O)C1=CCN(S(=O)(=O)c2ccc(C)cc2)CC1` (stereo not drawn): 43.5 µg/mL (≈ 129 µM); for `O=[N+]([O-])c1ccc(Sc2cc[n+]([O-])c3ccccc23)c([N+](=O)[O-])c1`: 4.6 µg/mL (≈ 13.4 µM).
The same measure for `COc1ccc(-c2nc(CN3CCN(c4ncccn4)CC3)c(C)o2)cc1C`: 39 µg/mL (≈ 103 µM).
To `Cc1ccc(CSCC(=O)NCc2ccc(F)cc2)cc1` belongs 23.2 µg/mL (≈ 76.5 µM).
Turning to `O=C(O)C1C2C=CC(O2)C1C(=O)Nc1cccc(C(F)(F)F)c1` (stereo not drawn), the solubility (kinetic) is greater than 49.1 µg/mL.
The same measure for `O=C1CSC(c2cccnc2)N1c1ccccc1` (stereo not drawn): greater than 38.4 µg/mL.
The same measure for `COc1ccc(Nc2ncnc3ccc(C)cc23)cc1`: greater than 39.8 µg/mL.
To `O=C(O)c1ccc(-c2cccc([N+](=O)[O-])c2)o1` belongs greater than 35 µg/mL.
As for `COc1ccc(CNC2c3ccccc3-c3ccccc32)cc1OC`, the solubility (kinetic) was 31.4 µg/mL (≈ 94.7 µM).
To `CCCNC(=S)N1CCC(C(=O)c2ccc(F)cc2)CC1` belongs greater than 46.3 µg/mL; to `CC(=O)N1CCN(S(=O)(=O)c2ccc(F)c(Cl)c2)CC1`, greater than 48.1 µg/mL; to `COc1ccccc1C(=O)NCCN1CCN(c2ccccc2)CC1.Cl`, 52.7 µg/mL.
`O=C(NC1CCSC1=O)C1CCCCC1` (stereo not drawn): the kinetic solubility was greater than 34.1 µg/mL.
Regarding `N#CC1C=Cc2ccccc2N1C(=O)c1ccccc1` (stereo not drawn), the solubility (kinetic) was 10.3 µg/mL (≈ 39.6 µM).
The same measure for `CC(=O)NC(CC(=O)O)c1ccc(F)cc1` (stereo not drawn): greater than 33.8 µg/mL; for `CN1C(=O)/C(=C\c2cccc(OCc3ccccc3)c2)SC1=S`: less than 0.7 µg/mL.
The same measure for `COc1ccc(CC2SC(=Nc3ccc(F)cc3)NC2=O)cc1` (stereo not drawn): 2.3 µg/mL (≈ 6.96 µM).
To `COc1ccc(N(C(=O)C(C)C)S(=O)(=O)c2ccc3ccccc3c2)cc1` belongs less than 0.8 µg/mL; to `Cc1cc(=O)[nH]c2ccc(S(=O)(=O)Nc3ccccc3)cc12`, 3.4 µg/mL (≈ 10.8 µM).
In turn, `COC(=O)C1Cc2ccccc2CN1S(=O)(=O)c1ccc(F)cc1` (stereo not drawn) gave a solubility (kinetic) of 35.4 µg/mL (≈ 101 µM).
To `O=C(NCc1ccccc1)NCC12CC3CC(CC(C3)C1)C2` belongs 1.3 µg/mL (≈ 4.36 µM); to `CN(C(=O)c1ccc(Br)o1)C1CCS(=O)(=O)C1` (stereo not drawn), greater than 48.3 µg/mL.
For the compound `NC(=O)NC(=O)COC(=O)c1ccc(OC(F)F)cc1`, the kinetic solubility came out at 9.9 µg/mL (≈ 34.4 µM).
To `CCCCN(C)C(=O)c1cc2cc([N+](=O)[O-])cc(OC)c2oc1=O` belongs greater than 50.1 µg/mL.
To `Cc1ccc(C)c(CN2CCN(c3ncccn3)CC2)c1` belongs 17.4 µg/mL (≈ 61.6 µM).
To `CN(CC(=O)Nc1cccc(C#N)c1)Cc1ccc(Cl)cc1` belongs 27.9 µg/mL (≈ 88.9 µM).
`CCOc1ccc(NC(=S)NCc2ccc3[nH]c(C)cc3c2)cc1` registered a kinetic solubility of 11.4 µg/mL (≈ 33.6 µM).
To `Clc1ccc(CSC(Cn2ccnc2)c2ccc(Cl)cc2Cl)cc1.O=[N+]([O-])O` (stereo not drawn) belongs 48.7 µg/mL; to `Cc1cccc(C(=O)OCC(=O)c2ccc3c(c2)NC(=O)CO3)c1`, 4.5 µg/mL (≈ 13.8 µM); to `c1ccc2[nH]c(-c3cnco3)cc2c1`, 21.6 µg/mL (≈ 117 µM).
To `COc1ccc(CNC(=O)CSc2nc3ccccc3n2C(C)=O)cc1` belongs 21.2 µg/mL (≈ 57.4 µM).
